Earlier results, collected in patent US20090036541A1, “Applicator and chemical combination for better topical anesthesia” (priority 2007, published 2009).

Conditions: compared with lidocaine

## CCCCNc1ccc(C(=O)OCCN(C)C)cc1 [tetracaine]
  potency relative to lidocaine: ten-fold
